Experimental data from patent publication US20060035820A1, “New derivatives of echinocandine, their preparation process and their use as antifungals” (AVENTIS PHARMA S.A., priority 1999, published 2006).

Target: T1, Glucan Synthase of Candida albicans (Candida albicans, UniProt O13428)
T1 construct: endogenous in cells; host or cells: Candida albicans membrane preparation (method of Tang et al. 1991)
Experiment: Inhibition of the Glucan Synthase of Candida albicans
Format: biochemical
Details: Candida albicans membranes, 14C-UDP glucose, 25° C. for 1 hour
Description: A—Inhibition of the Glucan Synthase of Candida albicans.
Candida albicans membranes were purified according to the process described by Tang et al Antimicrob. Agents Chemother 35, 99-103, 1991. 22.5 μg of membrane proteins are incubated in a mixture of 2 Mm of 14C-UDP glucose (specific activity=0.34 mCi./mmol, 50 μg of α-amylase, 1 Mm of dithiotreitol (DTT), 1 Mm EDTA, 100 Mm NaF, 7 μM of GTP-γ-S, 1M of sucrose and 50 Mm of Tris-HCL (pH 7.8) in a volume of 100 μl. The medium is incubated at 25° C. for 1 hour and the reaction is terminated by adding TCA at a final concentration of 5%. The reaction mixture is transferred onto a pre-humidified glass fibre filter. The filter is washed, dried and its radioactivity is counted. Mulundocandine is used as a positive control. Control of the vehicle is carried out with the same quantity of 1% DMSO.

T1 sequence (O13428 1-1897): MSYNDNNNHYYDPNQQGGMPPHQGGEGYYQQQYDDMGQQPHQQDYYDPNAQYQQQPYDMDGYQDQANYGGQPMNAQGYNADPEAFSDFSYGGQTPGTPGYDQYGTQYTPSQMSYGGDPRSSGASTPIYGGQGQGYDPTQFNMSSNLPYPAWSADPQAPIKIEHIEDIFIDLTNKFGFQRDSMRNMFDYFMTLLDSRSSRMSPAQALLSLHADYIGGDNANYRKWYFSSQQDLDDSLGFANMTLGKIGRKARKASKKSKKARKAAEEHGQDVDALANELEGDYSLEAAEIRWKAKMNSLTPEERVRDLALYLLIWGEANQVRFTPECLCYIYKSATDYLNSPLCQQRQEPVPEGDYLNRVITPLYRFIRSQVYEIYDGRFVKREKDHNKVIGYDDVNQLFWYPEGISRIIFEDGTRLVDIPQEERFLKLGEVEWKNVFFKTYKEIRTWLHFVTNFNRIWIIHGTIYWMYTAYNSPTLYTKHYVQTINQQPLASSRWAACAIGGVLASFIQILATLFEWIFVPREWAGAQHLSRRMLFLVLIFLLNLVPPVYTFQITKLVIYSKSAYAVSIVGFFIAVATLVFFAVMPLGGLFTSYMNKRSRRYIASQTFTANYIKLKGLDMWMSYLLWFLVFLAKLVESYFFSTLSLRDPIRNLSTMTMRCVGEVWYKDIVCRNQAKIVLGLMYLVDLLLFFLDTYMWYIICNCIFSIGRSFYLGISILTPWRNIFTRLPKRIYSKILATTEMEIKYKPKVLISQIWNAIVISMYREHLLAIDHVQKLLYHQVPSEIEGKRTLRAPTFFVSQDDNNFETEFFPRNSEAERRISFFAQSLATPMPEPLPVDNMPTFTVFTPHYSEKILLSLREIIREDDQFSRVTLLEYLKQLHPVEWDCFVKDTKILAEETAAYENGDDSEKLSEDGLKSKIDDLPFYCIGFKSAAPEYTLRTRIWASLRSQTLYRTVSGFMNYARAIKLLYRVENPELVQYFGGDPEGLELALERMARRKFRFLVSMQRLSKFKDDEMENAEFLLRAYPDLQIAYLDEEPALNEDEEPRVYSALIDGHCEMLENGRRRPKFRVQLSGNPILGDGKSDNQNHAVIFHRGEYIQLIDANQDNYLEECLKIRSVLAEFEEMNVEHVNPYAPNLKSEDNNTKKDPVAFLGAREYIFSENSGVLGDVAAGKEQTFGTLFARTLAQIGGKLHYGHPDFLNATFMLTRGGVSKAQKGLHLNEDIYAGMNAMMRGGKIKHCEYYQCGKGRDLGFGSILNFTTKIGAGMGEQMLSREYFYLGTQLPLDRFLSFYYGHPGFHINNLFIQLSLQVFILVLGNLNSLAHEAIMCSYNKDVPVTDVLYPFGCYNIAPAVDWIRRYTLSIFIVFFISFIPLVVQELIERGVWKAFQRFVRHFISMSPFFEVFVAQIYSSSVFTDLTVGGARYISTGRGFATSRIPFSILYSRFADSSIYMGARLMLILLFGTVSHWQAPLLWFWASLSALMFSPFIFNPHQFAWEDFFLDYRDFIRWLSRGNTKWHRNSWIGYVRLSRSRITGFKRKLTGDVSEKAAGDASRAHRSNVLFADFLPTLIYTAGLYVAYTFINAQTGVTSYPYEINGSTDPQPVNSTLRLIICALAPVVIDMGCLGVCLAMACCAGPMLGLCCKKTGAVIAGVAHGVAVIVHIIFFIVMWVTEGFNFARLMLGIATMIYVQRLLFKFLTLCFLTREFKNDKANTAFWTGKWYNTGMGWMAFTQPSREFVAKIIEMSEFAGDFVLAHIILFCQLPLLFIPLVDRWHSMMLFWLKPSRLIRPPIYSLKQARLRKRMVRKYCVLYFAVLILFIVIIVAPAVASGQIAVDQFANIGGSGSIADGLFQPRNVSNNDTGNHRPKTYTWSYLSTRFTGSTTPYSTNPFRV
T1 sequence (O42825 1-195 partner limits assumed): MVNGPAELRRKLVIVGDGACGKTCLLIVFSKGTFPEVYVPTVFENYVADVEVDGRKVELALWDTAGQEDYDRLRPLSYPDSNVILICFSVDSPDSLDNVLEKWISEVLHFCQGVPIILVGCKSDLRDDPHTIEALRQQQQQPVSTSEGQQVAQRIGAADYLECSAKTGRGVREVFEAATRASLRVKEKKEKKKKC

“Trans 1-[4-[(2-aminocyclo-hexyl)-amino]-N2-[[4″-(pentyloxy)[1,1′:4′,1″-terphenyl]-4-yl)]-carbonyl]-L-ornithine]-4-[4-(4-hydroxyphenyl)-L-threonine]-5-L-serine-echinocandin B trifluoroacetate (isomer A). [Example 3 isomer A]” was tested, and the “Inhibition of the glucan synthase of Candida albicans (activity in words)” value was “good activity”.
